Measured values: patent publication US20250346579A1, “PYRIDAZINONE COMPOUND AND PREPARATION METHOD THEREFOR, PHARMACEUTICAL COMPOSITION THEREOF, AND APPLICATION THEREOF” (CHINA PHARMACEUTICAL UNIVERSITY, priority 2021, published 2025)
Like-named read-outs stand apart in the source and are kept apart here.

Target: T1, PARP7 (Homo sapiens, UniProt Q7Z3E1)
T1 construct: purchased BPS Bioscience
T1 sequence (Q7Z3E1 1-657): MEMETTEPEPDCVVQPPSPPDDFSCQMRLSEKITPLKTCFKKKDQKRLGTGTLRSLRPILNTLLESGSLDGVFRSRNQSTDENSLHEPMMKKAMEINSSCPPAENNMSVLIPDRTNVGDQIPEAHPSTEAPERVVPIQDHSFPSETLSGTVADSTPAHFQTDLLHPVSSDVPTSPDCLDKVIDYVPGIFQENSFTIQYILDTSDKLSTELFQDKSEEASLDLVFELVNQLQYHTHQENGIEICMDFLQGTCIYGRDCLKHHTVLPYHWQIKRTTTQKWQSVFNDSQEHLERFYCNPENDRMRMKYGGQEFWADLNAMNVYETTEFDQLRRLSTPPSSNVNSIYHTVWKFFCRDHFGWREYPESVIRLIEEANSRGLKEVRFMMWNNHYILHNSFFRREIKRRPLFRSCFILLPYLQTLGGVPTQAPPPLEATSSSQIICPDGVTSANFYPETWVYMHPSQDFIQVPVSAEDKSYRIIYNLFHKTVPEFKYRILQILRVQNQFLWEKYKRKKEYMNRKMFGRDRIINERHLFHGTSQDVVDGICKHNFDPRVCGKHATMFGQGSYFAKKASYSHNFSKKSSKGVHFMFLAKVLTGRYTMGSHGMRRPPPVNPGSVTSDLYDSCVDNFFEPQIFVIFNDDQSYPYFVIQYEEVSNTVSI
Experiment: Inhibitory activity of compounds on PARP7 enzyme (PARP7 Chemiluminescent Assay Kit)
Type: biochemical
Description: Experimental materials: PARP7 Chemiluminescent Assay Kit, BPS Bioscience; DMSO, China National Pharmaceutical Group, Nivo, PerkinElmer.
(1) Preparation of Solutions and Buffers:
Preparation of 10×PBS: 720 mg of KH2PO4, 45 g of NaCl and 5.311 g of Na2HPO4·12H2O were weighed respectively and dissolved in 500 mL of deionized water, a system pH value was adjusted to 7.4, sterilization was performed at 121° C. for 30 min, and the system after cooling was placed at 4° C. for later use.
Preparation of 1×PBS: 10×PBS was diluted 10 times with deionized water, that is, 9 parts of deionized water was added to 1 part of 10×PBS for dilution.
Preparation of wash buffer: 1×PBS contained 0.05% Tween-20.
Preparation of 1×PARP buffer (prepared freshly before use): 10×PARP buffer was diluted 10 times with deionized water and placed on ice for later use.
(2) Preparation of Compound Working Solution Concentration:
According to test requirements, a compound to be tested is diluted with 100% DMSO to a desired concentration, and then diluted 10 times with 1×PARP buffer to prepare a 10× compound working solution.
a. 5× histone mixture was thawed on ice one day prior to the experiment;
b. preparation of 1× histone mixture: 1× histone mixture was prepared through the 5× histone mixture by using 1×PBS; and 25 μL of 1× histone mixture was taken from each well and transferred into a test well plate and incubated overnight at 4° C.;
c. 100 μL of Blocking buffer was taken from each well and added to the test well plate and incubated for 90 min at 25° C.;
d. after the incubation was completed, the liquid in the test well plate was spin-dried, and the test well plate was washed repeatedly for 3 times;
e. 2.5 μL of the compound working solution was taken from each well and added to the test well plate according to an experimental layout diagram; and 1×PARP buffer with a corresponding volume of 10% DMSO was added to positive control wells (Positive Control), and 1×PARP buffer of a corresponding volume was added to blank control wells (Blank);
f. after the enzyme was completely dissolved, an enzyme stock solution was diluted with 1×PARP buffer to 6 ng/μL;
g. 10 μL of enzyme solution was taken from each well and added to the test well plate, the blank control wells were added with the corresponding volume of 1×PARP buffer, and in which case, the enzyme amount was 60 ng per well. Note: this step needs to be performed on ice;
h. 12.5 μL of master mixture was added to each well of the test well plate (12.5 μL master mixture included 1.25 μL of 10×PARP buffer, 1.25 μL of Opti-PARP 10× Assay mixture and 10 μL of water); the test well plate was sealed and incubated at 25° C. for 60 min;
i. after the incubation was completed, the liquid in the test well plate was spin-dried, and the test well plate was washed repeatedly for 3 times;
j. Streptavidin-HRP in a kit was diluted 50 times with a Blocking buffer, 25 μL was taken from each well and added to the test well plate, and incubated at 25° C. for 30 min;
k. after the incubation was completed, the liquid in the test well plate was spin-dried, and the test well plate was washed repeatedly for 3 times;
l. ELISA ECL Substrate A and ELISA ECL Substrate B in the kit was mixed to obtain a mixed solution according to a ratio of 1:1, 50 μL of the mixed solution was added to each well of the test well plate, Nivo was used to perform Luminescence detection immediately, and a luminous value (RLU) was read; and
m. calculation of an enzyme rate: Enzyme Activity=(RLU(Sample)−RLU(Blank))/(RLU(Pos.Ctrl)−RLU(Blank))×100%; and enzyme inhibition rate=1−% Enzyme Activity, and specific results were shown in Table 1 below.

[1] = chemiluminescence, symbols defined as IC50 classes, read-out: 100 nM Inhibition Rate
[2] = summary of Table 1, read-out: enzyme inhibition IC50 values

Structure (SMILES)	IC50 [1]	IC50 [2]
C[C@@H](CN1CC(C(=O)N2CCN(c3ncc(Br)cn3)CC2)C1)Nc1cn[nH]c(=O)c1C(F)(F)F [I-A-7, (S)-5-((1-(3-(4-(5-bromopyrimidin-2-yl)piperazine-1-carbonyl)azetidin-1-yl)propan-2-yl)amino)-4-(trifluoromethyl)pyridazin-3(2H)-one]	< 100 nM	–
C[C@@H](CN1CC(C(=O)N2CCN(c3ncc(C#N)cn3)CC2)C1)Nc1cn[nH]c(=O)c1C(F)(F)F [I-A-3, (S)-2-(4-(1-(2-((6-oxo-5-(trifluoromethyl)-1,6-dihydropyridazin-4-yl)amino)propyl)azetidine-3-carbonyl)piperazin-1-yl)pyrimidine-5-carbonitrile]	< 100 nM	–
C[C@@H](CN1CC(C(=O)N(C)C2CN(c3ncc(C(F)(F)F)cn3)C2)C1)Nc1cn[nH]c(=O)c1C(F)(F)F [I-A-16, (S)-N-methyl-1-(2-((6-oxo-5-(trifluoromethyl)-1,6-dihydropyridazin-4-yl)amino)propyl)-N-(1-(5-(trifluoromethyl)pyrimidin-2-yl)azetidin-3-yl)azetidine-3-carboxamide]	< 100 nM	–
C[C@@H](CN1CC(C(=O)NC2CN(c3ncc(C(F)(F)F)cn3)C2)C1)Nc1cn[nH]c(=O)c1C(F)(F)F [I-A-15, (S)-1-(2-((6-oxo-5-(trifluoromethyl)-1,6-dihydropyridazin-4-yl)amino)propyl)-N-(1-(5-(trifluoromethyl)pyrimidin-2-yl)azetidin-3-yl)azetidine-3-carboxamide]	< 100 nM	–
C[C@@H](CN1CC(C(=O)N2CCN(c3nccc(C(F)(F)F)n3)CC2)C1)Nc1cn[nH]c(=O)c1C(F)(F)F [I-A-13, (S)-4-(trifluoromethyl)-5-((1-(3-(4-(4-(trifluoromethyl)pyrimidin-2-yl)piperazine-1-carbonyl)azetidin-1-yl)propan-2-yl)amino)pyridazin-3(2H)-one]	< 100 nM	< 100 nM
C[C@@H](CN1CC(C(=O)N2CCN(c3ncc(C(F)(F)F)cn3)CC2)C1)Nc1cn[nH]c(=O)c1Br [I-A-23, (S)-4-bromo-5-((1-(3-(4-(5-(trifluoromethyl)pyrimidin-2-yl)piperazine-1-carbonyl)azetidin-1-yl)propan-2-yl)amino)pyridazin-3(2H)-one]	100 to 500 nM	–
C[C@@H](CN1CC(C(=O)N2CCN(c3ncccn3)CC2)C1)Nc1cn[nH]c(=O)c1C(F)(F)F [I-A-14, (S)-5-((1-(3-(4-(pyrimidin-2-yl)piperazine-1-carbonyl)azetidin-1-yl)propan-2-yl)amino)-4-(trifluoromethyl)pyridazin-3(2H)-one]	100 to 500 nM	–
C[C@@H](CN1CC(C(=O)N2CCN(c3ncc(F)cn3)CC2)C1)Nc1cn[nH]c(=O)c1C(F)(F)F [I-A-8, (S)-5-((1-(3-(4-(5-fluoropyrimidin-2-yl)piperazine-1-carbonyl)azetidin-1-yl)propan-2-yl)amino)-4-(trifluoromethyl)pyridazin-3(2H)-one]	100 to 500 nM	–
CC(CC1CN(C(=O)C2CCN(c3ncc(C(F)(F)F)cn3)CC2)C1)Nc1cn[nH]c(=O)c1C(F)(F)F [I-D-1, 4-(trifluoromethyl)-5-((1-(1-(1-(5-(trifluoromethyl)pyrimidin-2-yl)piperidine-4-carbonyl)azetidin-3-yl)propan-2-yl)amino)pyridazin-3(2H)-one]	< 100 nM	< 100 nM
CC1CN(c2ncc(C(F)(F)F)cn2)CC(C)N1C(=O)C1CN(C[C@H](C)Nc2cn[nH]c(=O)c2C(F)(F)F)C1 (stereo partly drawn) [I-A-17, 5-(((2S)-1-(3-(2,6-dimethyl-4-(5-(trifluoromethyl)pyrimidin-2-yl)piperazine-1-carbonyl)azetidin-1-yl)propan-2-yl)amino)-4-(trifluoromethyl)pyridazin-3(2H)-one]	< 100 nM	–
C[C@@H](CN1CC(C(=O)N2CCN(c3ncc(-c4ccc(C(F)(F)F)cc4)cn3)CC2)C1)Nc1cn[nH]c(=O)c1C(F)(F)F [I-A-2, (S)-4-(trifluoromethyl)-5-((1-(3-(4-(5-(4-(trifluoromethyl)phenyl)pyrimidin-2-yl)piperazine-1-carbonyl)azetidin-1-yl)propan-2-yl)amino)pyridazin-3(2H)-one]	100 to 500 nM	–
C[C@@H](CN1CCC(C(=O)N2CCN(c3ncc(C(F)(F)F)cn3)CC2)CC1)Nc1cn[nH]c(=O)c1C(F)(F)F [I-A-19, (S)-4-(trifluoromethyl)-5-((1-(4-(4-(5-(trifluoromethyl)pyrimidin-2-yl)piperazine-1-carbonyl)piperidin-1-yl)propan-2-yl)amino)pyridazin-3(2H)-one]	100 to 500 nM	–
C[C@@H](CN1CC(C(=O)N2CCN(c3cccc4c3oc3ccccc34)CC2)C1)Nc1cn[nH]c(=O)c1C(F)(F)F [I-A-12]	100 to 500 nM	–

More lines, now with the values ahead:

IC50 [1]	IC50 [2]	Structure (SMILES)
< 100 nM	< 100 nM	O=C(NCCCCNc1cn[nH]c(=O)c1C(F)(F)F)N1CCN(c2ncc(C(F)(F)F)cn2)CC1 [I-E-1, N-(4-((6-oxo-5-(trifluoromethyl)-1,6-dihydropyridazin-4-yl)amino)butyl)-4-(5-(trifluoromethyl)pyrimidin-2-yl)piperazine-1-carboxamide]
< 100 nM	< 100 nM	O=C(NC/C=C/CNc1cn[nH]c(=O)c1C(F)(F)F)N1CCN(c2ncc(C(F)(F)F)cn2)CC1 [I-E-2, (E)-N-(4-((6-oxo-5-(trifluoromethyl)-1,6-dihydropyridazin-4-yl)amino)but-2-en-1-yl)-4-(5-(trifluoromethyl)pyrimidin-2-yl)piperazine-1-carboxamide]
< 100 nM	< 100 nM	O=C(Nc1cccc(CNc2cn[nH]c(=O)c2C(F)(F)F)c1)N1CCN(c2ncc(C(F)(F)F)cn2)CC1 [I-E-7, N-(3-(((6-oxo-5-(trifluoromethyl)-1,6-dihydropyridazin-4-yl)amino)methyl)phenyl)-4-(5-(trifluoromethyl)pyrimidin-2-yl)piperazine-1-carboxamide]
< 100 nM	< 100 nM	O=C(C1CN(CCNc2cn[nH]c(=O)c2C(F)(F)F)C1)N1CCN(c2ncc(C(F)(F)F)cn2)CC1 [I-A-20, 4-(trifluoromethyl)-5-((2-(3-(4-(5-(trifluoromethyl)pyrimidin-2-yl)piperazine-1-carbonyl)azetidin-1-yl)ethyl)amino)pyridazin-3(2H)-one]
100 to 500 nM	–	C[C@@H](CN1CC[C@H](C(=O)N2CCN(c3ncc(C(F)(F)F)cn3)CC2)C1)Nc1cn[nH]c(=O)c1C(F)(F)F [I-A-18, 4-(trifluoromethyl)-5-(((2S)-1-(3-(4-(5-(trifluoromethyl)pyrimidin-2-yl)piperazine-1-carbonyl)pyrrolidin-1-yl)propan-2-yl)amino)pyridazin-3(2H)-one]
100 to 500 nM	–	O=C(C1CN(CC2(Nc3cn[nH]c(=O)c3C(F)(F)F)CC2)C1)N1CCN(c2ncc(C(F)(F)F)cn2)CC1 [I-A-24, 4-(trifluoromethyl)-5-((1-((3-(4-(5-(trifluoromethyl)pyrimidin-2-yl)piperazine-1-carbonyl)azetidin-1-yl)methyl)cyclopropyl)amino)pyridazin-3(2H)-one]
